Source: paper PMC4450297, “Screening Active Compounds from Garcinia Species Native to China Reveals Novel Compounds Targeting the STAT/JAK Signaling Pathway” (BioMed Research International, 2015)
Where two headings read alike, the source gives them in different places.

How the values were obtained:
[1] = tested on: PUMA, NOXA, and CDIP mRNA in NCI-H1650 cells; assay: Quantitative real-time PCR of proapoptotic genes; type: cell-based, human; conditions: 24-hour treatment
Excerpt: The primers for PUMA (Cat. Hs00248075_m1), CDIP1 (Cat. Hs00924663_g1), and NOXA (Cat. Hs00560402_m1) for quantitative PCR were all purchased from Invitrogen. Dissociation curves and no-cDNA controls were generated for each primer pair to detect nonspecific amplification. A standard curve was generated for each primer pair as well as for glyceraldehyde-3-phosphate dehydrogenase (GAPDH; using in this case a predeveloped TaqMan assay), to which gene expression levels were normalized by a comparative threshold cycle method. Finally, a ratio was calculated comparing normalized gene expression values in treated versus untreated controls for each sample.
Total RNA was extracted from the NCI-H1650 cell line using the RNeasy kit (Qiagen). cDNA synthesis was performed using Superscript II RNase H– reverse transcriptase (Life Technologies, Bethesda, MD, USA) to transcribe 2 μg of total RNA primed with 1 μL of 500 μg/mL random hexamers. For quantitative real-time PCR analysis, an ABI TaqMan assay (HS00378697) was used in an ABI 7300 system with the following profile: 95°C for 10 min, followed by 40 cycles of 15 s at 95°C and 60 s at 60°C. PUMA, NOXA, and CDIP1 mRNA levels were normalized by comparison to GAPDH RNA levels in the same samples. Each measurement was performed at least in duplicate.

HuVec = assay: Cell proliferation assay (CellTiter-Glo), control cell line; type: cell-based; conditions: Homo sapiens, 72 h
Description: (§1) All cells were obtained from the cell bank of the American Type Culture Collection (ATCC) and cultured in the supplier's recommended media supplemented with 10% FBS. The cell panel screen was measured using the CellTiter-Glo assay (Promega, Madison, WI) following a standard protocol. Briefly, cancer cells were seeded in 96-well plates and cultured overnight at 37°C with or without 5% CO2 in an incubator. Each compound was dissolved with limited DMSO and diluted to a certain concentration with culture medium and then added to the corresponding well of the cell plate. The final concentration of compound was 20 μM. The control cells (without treatment) received the same amount of DMSO and were incubated under the same conditions. After 72 h cultivation, 100 μL of the CellTiter-Glo reagent was added directly to each well for 10-minute incubation. The plate was then read on a FlexStation 3 microplate luminometer (Molecular Devices, USA) to monitor the luminescence signal generated by the luciferase-catalyzed reaction of luciferin and ATP. The percent of growth inhibition was calculated using the following formula: (untreated cells − treated cells)/(untreated cells − background without cells) ∗ 100.
(§2) For proliferation assays, the CellTiter-Glo assay (Promega, Madison, WI) was used to evaluate the proliferation of cancer cells treated with test compounds as described above. Each compound was dissolved in limited DMSO and diluted to various concentrations with culture medium and then added to the corresponding wells. A dose-response curve was plotted, and the IC50 was calculated using XLfit software.

NCI-H1993 = assay: Cell proliferation assay (CellTiter-Glo); type: cell-based; conditions: Homo sapiens, NCI-H1993 cells, 72 h
Description: as §1, §2

U118MG = assay: Cell proliferation assay (CellTiter-Glo); type: cell-based; conditions: Homo sapiens, U-118-MG, U118MG cells, 72 h
Description: as §1, §2

NCI-H1975 = assay: Cell proliferation assay (CellTiter-Glo); type: cell-based; conditions: Homo sapiens, NCI-H1975 cells, 72 h
Description: as §1, §2

LnCap = assay: Cell proliferation assay (CellTiter-Glo); type: cell-based; conditions: Homo sapiens, LnCap cells, 72 h
Description: as §1, §2

A549 = assay: Cell proliferation assay (CellTiter-Glo); type: cell-based; conditions: Homo sapiens, A549 cells, 72 h
Description: as §1, §2

SW48 = assay: Cell proliferation assay (CellTiter-Glo); type: cell-based; conditions: Homo sapiens, SW48 cells, 72 h
Description: as §1, §2

CHP212 = assay: Cell proliferation assay (CellTiter-Glo); type: cell-based; conditions: Homo sapiens, CHP-212, CHP212 cells, 72 h
Description: as §1, §2

NCI-H838 = assay: Cell proliferation assay (CellTiter-Glo); type: cell-based; conditions: Homo sapiens, NCI-H838 cells, 72 h
Description: as §1, §2

SK-MEL-28 = assay: Cell proliferation assay (CellTiter-Glo); type: cell-based; conditions: Homo sapiens, SK-MEL-28 cells, 72 h
Description: as §1, §2

SW1353 = assay: Cell proliferation assay (CellTiter-Glo); type: cell-based; conditions: Homo sapiens, SW1353 cells, 72 h
Description: as §1, §2

NCI-H524 = assay: Cell panel screen (CellTiter-Glo); type: cell-based, human; conditions: Homo sapiens, read-out: Percent Inhibition
Summary of the method: (§3)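 Here, cancer cells cultured in medium with 10% FBS are treated for 72 h with each compound at 20 μM final. Viability is measured by ATP-dependent luminescence, and growth inhibition is calculated as a percentage against vehicle-only wells minus cell-free background.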

HCC1599 = assay: Cell panel screen (CellTiter-Glo); type: cell-based, human; conditions: Homo sapiens, read-out: Percent Inhibition
Summary of the method: as §3

A704 = assay: Cell panel screen (CellTiter-Glo); type: cell-based, human; conditions: Homo sapiens, read-out: Percent Inhibition
Summary of the method: as §3

HPAF-II = assay: Cell panel screen (CellTiter-Glo); type: cell-based, human; conditions: Homo sapiens, read-out: Percent Inhibition
Summary of the method: as §3

TCCSUP = assay: Cell panel screen (CellTiter-Glo); type: cell-based, human; conditions: Homo sapiens, TCC-SUP, read-out: Percent Inhibition
Summary of the method: as §3

NCI-H2347 = assay: Cell panel screen (CellTiter-Glo); type: cell-based, human; conditions: Homo sapiens, read-out: Percent Inhibition
Summary of the method: as §3

CCF-STTG1 = assay: Cell panel screen (CellTiter-Glo); type: cell-based, human; conditions: Homo sapiens, read-out: Percent Inhibition
Summary of the method: as §3

ChaGo-K-1 = assay: Cell panel screen (CellTiter-Glo); type: cell-based, human; conditions: Homo sapiens, read-out: Percent Inhibition
Summary of the method: as §3

BT-549 = assay: Cell panel screen (CellTiter-Glo); type: cell-based, human; conditions: Homo sapiens, read-out: Percent Inhibition
Summary of the method: as §3

MSTO-211-H = assay: Cell panel screen (CellTiter-Glo); type: cell-based, human; conditions: Homo sapiens, read-out: Percent Inhibition
Summary of the method: as §3

Panc 03.27 = assay: Cell panel screen (CellTiter-Glo); type: cell-based, human; conditions: Homo sapiens, read-out: Percent Inhibition
Summary of the method: as §3

[2] = NCI-H524 (Lung), 20 micromolar, 72 hrs
[3] = HCC1599 (Breast), 20 micromolar, 72 hrs
[4] = A704 (Kidney), 20 micromolar, 72 hrs
[5] = HPAF-II (Pancreas), 20 micromolar, 72 hrs
[6] = TCCSUP (Urinary bladder), 20 micromolar, 72 hrs
[7] = NCI-H2347 (Lung), 20 micromolar, 72 hrs
[8] = CCF-STTG1 (Brain), 20 micromolar, 72 hrs
[9] = ChaGo-K-1 (Lung), 20 micromolar, 72 hrs
[10] = BT-549 (Breast), 20 micromolar, 72 hrs
[11] = MSTO-211-H (Lung), 20 micromolar, 72 hrs
[12] = PANC-03-27, Panc 03.27 (Pancreas), 20 micromolar, 72 hrs

Row | Structure (SMILES) | induction of CIDP mRNA [1] | induction of NOXA mRNA [1] | induction of PUMA mRNA [1] | IC50 (HuVec) [nM] | IC50 (NCI-H1993) [nM] | IC50 (U118MG) [nM] | IC50 (NCI-H1975) [nM] | IC50 (LnCap) [nM] | IC50 (A549) [nM] | IC50 (SW48) [nM] | IC50 (CHP212) [nM] | IC50 (NCI-H838) [nM] | IC50 (SK-MEL-28) [nM] | IC50 (SW1353) [nM] | inhibition at 20 µM (NCI-H524; [2]) [%] | inhibition at 20 µM (HCC1599; [3]) [%] | inhibition at 20 µM (A704; [4]) [%] | inhibition at 20 µM (HPAF-II; [5]) [%] | inhibition at 20 µM (TCCSUP; [6]) [%] | inhibition at 20 µM (NCI-H2347; [7]) [%] | other results
1 | CC(C)=CCC/C(C)=C/Cc1c(O)c(CC=C(C)C)c2c(c1O)C(=O)C1=C[C@@H]3C[C@H]4C(C)(C)O[C@@](CC=C(C)C)(C3=O)[C@@]14O2 [GB32] | no effect | no effect | no effect | 1630 ± 60 | 2470 ± 110 | 1190 ± 70 | 1580 ± 120 | 1800 ± 140 | 2880 ± 60 | 3840 ± 90 | 1450 ± 80 | 3150 ± 40 | 1510 ± 70 | 1410 ± 50 |  |  |  |  |  |  | inhibition at 20 µM (NCI-H524; NCI-H524, 72 h): 99%; inhibition at 20 µM (HCC1599; HCC1599, 72 h): 100%; inhibition at 20 µM (A704; A704, 72 h): 99%; inhibition at 20 µM (HPAF-II; HPAF-II, 72 h): 99%; inhibition at 20 µM (TCCSUP; 72 h): 99%; inhibition at 20 µM (NCI-H2347; NCI-H2347, 72 h): 98%; inhibition at 20 µM (CCF-STTG1; CCF-STTG1, 72 h): 99%; inhibition at 20 µM (ChaGo-K-1; ChaGo-K-1, 72 h): 99%; inhibition at 20 µM (BT-549; BT-549, 72 h): 99%; inhibition at 20 µM (MSTO-211-H; MSTO-211H, 72 h): 99%; inhibition at 20 µM (Panc 03.27; PANC-03-27, 72 h): 99%
2 | CC(C)=CCC[C@@]1(C)C=Cc2c(O)c3c(c(CCC(C)(C)O)c2O1)O[C@]12C(=C[C@@H]4C[C@H]1C(C)(C)O[C@@]2(C/C=C(/C)C(=O)O)C4=O)C3=O [GB39, 33-hydroxyepigambogic acid] | 3 fold | greater than 5 fold | 3 fold | 890 ± 90 | 1030 ± 130 | 1150 ± 90 | 1250 ± 140 | 840 ± 80 | 3040 ± 100 | 1440 ± 60 | 1200 ± 80 | 1500 ± 70 | 820 ± 110 | 760 ± 30 | 100 | 100 | 99 | 100 | 100 | 99 | inhibition at 20 µM (CCF-STTG1; [8]): 100%; inhibition at 20 µM (ChaGo-K-1; [9]): 100%; inhibition at 20 µM (BT-549; [10]): 100%; inhibition at 20 µM (MSTO-211-H; [11]): 100%; inhibition at 20 µM (Panc 03.27; [12]): 100%
3 | CC(C)=CCC[C@@]1(C)C=Cc2c(O)c3c(c(C/C=C(\C)CO)c2O1)O[C@]12C(=C[C@@H]4C[C@H]1C(C)(C)O[C@@]2(C/C=C(/C)C(=O)O)C4=O)C3=O [GB40, 35-hydroxyepigambogic acid] | 2 fold | greater than 5 fold | 2 fold | 680 ± 10 | 1290 ± 50 | 1030 ± 150 | 960 ± 50 | 790 ± 120 | 2450 ± 60 | 1470 ± 100 | 1180 ± 50 | 1680 ± 190 | 730 ± 210 | 830 ± 50 | 99 | 99 | 98 | 99 | 99 | 98 | inhibition at 20 µM (CCF-STTG1; [8]): 99%; inhibition at 20 µM (ChaGo-K-1; [9]): 98%; inhibition at 20 µM (BT-549; [10]): 99%; inhibition at 20 µM (MSTO-211-H; [11]): 98%; inhibition at 20 µM (Panc 03.27; [12]): 99%
4 | CC(C)=CCC/C(C)=C/Cc1c(O)c(CC=C(C)C)c2c(c1O)C(=O)C1=C[C@@H]3C[C@H]4C(C)(C)O[C@@](C/C=C(\C)C(=O)O)(C3=O)[C@@]14O2 [GB63] | no effect | no effect | no effect | 1900 ± 30 | 2150 ± 100 | 3050 ± 100 | 1710 ± 220 | 2170 ± 210 | 3770 ± 60 | 4020 ± 150 | 3510 ± 80 | 2650 ± 200 | 1750 ± 160 | 2480 ± 110 | 98 | 99 | 99 | 99 | 99 | 98 | inhibition at 20 µM (CCF-STTG1; [8]): 99%; inhibition at 20 µM (ChaGo-K-1; [9]): 100%; inhibition at 20 µM (BT-549; [10]): 99%; inhibition at 20 µM (MSTO-211-H; [11]): 99%; inhibition at 20 µM (Panc 03.27; [12]): 99%
5 | CC(C)=CCC/C(C)=C/Cc1c(O)c(CC=C(C)C)c2c(c1O)C(=O)C1=C[C@@H]3C[C@H]4C(C)(C)O[C@@](C/C=C(\C)C=O)(C3=O)[C@@]14O2 [GB49] | no effect | no effect | no effect | 1470 ± 70 | 2550 ± 140 | 1220 ± 50 | 1690 ± 150 | 1910 ± 60 | 3460 ± 200 | 2970 ± 60 | 1430 ± 30 | 2720 ± 150 | 1510 ± 120 | 1290 ± 50 | 100 | 99 | 98 | 98 | 99 | 98 | inhibition at 20 µM (CCF-STTG1; [8]): 99%; inhibition at 20 µM (ChaGo-K-1; [9]): 99%; inhibition at 20 µM (BT-549; [10]): 99%; inhibition at 20 µM (MSTO-211-H; [11]): 99%; inhibition at 20 µM (Panc 03.27; [12]): 98%
